Results reported in patent US9155741B2, “Methods of using a methylxanthine compound” (The Trustees of the University of Pennsylvania, priority 2008, dated 2015).

Tests used:
[1] = biological target: T1, cytochrome oxidase (CcOX) (Rattus norvegicus, UniProt P05503); experiment: Myocardial cytochrome oxidase steady-state kinetic activity in isolated cardiac mitochondria after CLP or sham operation; assay type: in vivo
T1 construct: from tissue; host or cells: mitochondria isolated from cardiac ventricles of Sprague-Dawley rats
Experimental: (§1) The care of the animals in this study was in accordance with NIH and Institutional Animal Care and Use Committee guidelines. Under isoflurane general anesthesia (up to 2%), 250 g male Sprague-Dawley rats (Charles River, Boston, Mass., USA) underwent cecal ligation and double puncture (CLP) with an 18-gauge needle or sham operation as previously described. All animals were administered 50 ml/kg saline subcutaneously immediately post procedure and every 24 hours. Once awake, animals were given access to food and water ad libitum.
(§2) Twenty four and 48 hours post-procedure, rats received either an intraperitoneal (i.p) injection of caffeine (7.5 mg/kg, Sigma-Aldrich, St. Louis, Mo.) or equal volume saline (1 mL). […] Four cohorts were evaluated: SHAM saline, SHAM caffeine, CLP saline, CLP caffeine. […]
(§3) Cardiac ventricles were harvested and homogenized in ice-cold H medium (70 mM sucrose, 220 mM mannitol, 2.5 mM Hepes, pH 7.4 and 2 mM EDTA). […] Pellets were again resuspended in H medium and mitochondrial protein concentration determined using the method of Lowry.
CcOX kinetics were assayed by the method of Smith in which the rate of oxidation of ferrocytochrome c was measured by following the decrease in absorbance at 550 nm. […] Specific activity was calculated from mean values of three to four measurements using 21.1 mM−cm^−1 as the extinction coefficient of ferrocytochrome c at 550 nm. […]

[2] = test system: cytochrome oxidase subunit I (CcOX-I); experiment: Immunoblot of steady-state levels of cardiac cytochrome oxidase subunit I; assay type: in vivo, rat; conditions: between all groups (SHAM/CLP, saline/caffeine), normalized to porin
Experimental: as §1, §2, §3
10 μg samples of mitochondrial protein were subjected to SDS-acrylamide gel electrophoresis and immunoblotting. […] The signal was detected with enhanced chemiluminescence (ECL; Amersham Pharmacia Biotech, Piscataway, N.J., USA), and density was measured using scanning densitometry. Five animals per group per experiment were evaluated.

isolated rat heart = experiment: Isolated rat heart preparation (left ventricular function, coronary perfusion, oxygen extraction and consumption) after CLP or sham operation; assay type: in vivo; conditions: for heart rate: mean +/- SD
Experimental: as §1
Twenty four and 48 hours post-procedure, rats received either an intraperitoneal (i.p) injection of caffeine (7.5 mg/kg, Sigma-Aldrich, St. Louis, Mo.) or equal volume saline (1 mL). Rats were sacrificed one hour after the 48 hour injection following euthanasia with 150 mg/kg of intraperitoneal pentobarbital. Four cohorts were evaluated: SHAM saline, SHAM caffeine, CLP saline, CLP caffeine. N=5 per group. The 24-hour time point was chosen for initial intervention based on the onset of the hypodynamic phase when cardiac function begins to deteriorate and the presence of reversible CcOX inhibition. Studies were performed at the 48-hour time point because this time point represents the late phase of sepsis when cardiac function is markedly depressed and mortality is 75%.
Rats were anesthetized with intraperitoneal pentobarbital (70 mg/kg) and heparinized (1000 U IP). The heart was excised rapidly and the aorta was cannulated. Retrograde perfusion was initiated at constant flow (12 mL/g-min) with a modified Krebs-Henseleit buffer containing (mmol/L) NaCl 120, KCl 4.7, MgSO4 1.2, KH2PO4 1.2, CaCl2 1.25, NaHCO3 25, and glucose. The non-recirculating buffer was maintained at pH 7.4 equilibrated with 95% O2-5% CO2 at 37° C. Isovolumetric left ventricle pressure (LVP) was measured with a transducer connected to a saline-filled latex balloon inserted into the left ventricle through the left atrium. The balloon was inflated to maintain an end-diastolic pressure of 10 mmHg Hearts were immersed in a water-jacketed chamber maintained at 37° C. and allowed to stabilize for 30 minutes.
Heart rate, LVP, the maximum rate of positive and negative change in LVP (+/−dP/dt), and aortic pressure were collected with an analog-to-digital converter system (Power Laboratory 4SP, ADlnstruments, Castle Hill, Australia). […] Measurements were obtained at coronary flow rates (CF) of 12, 10, 8, 6, and 4 mL/g-min Coronary inflow oxygen tension (PaO2) and coronary sinus oxygen tension (PvO2) were measured (GEM Premier 3000, Instrumentation Laboratory, Belgium). Percent O2 extraction was calculated as 100×(PaO2-PvO2/PaO2). Myocardial O2 consumption (MO2) was calculated as CF/g×(PaO2-PvO2)×O2 solubility at 760 mmHg O2 solubility is 24 |il/ml H2O at 37° C. Coronary perfusion pressure was calculated as the difference between mean aortic pressure and LV end-diastolic pressure. Coronary resistance was calculated by dividing perfusion pressure by coronary flow.

[3] = test system: cecal ligation and puncture (CLP) sepsis model; experiment: Survival to 96 hours following CLP or sham operation; assay type: in vivo, rat
Experimental: as §1
The survival was followed in a separate cohort of animals in this two treatment parallel-design study to 96 hours. Each animal was injected with either caffeine (7.5 mg/kg i.p.) or equal volume of saline (1 mL i.p.) every 24 hours beginning 24 hours following CLP or sham operation. Twenty animals per group were evaluated based on the probability being 80 percent that the study will detect a treatment difference at a two-sided 5.0 percent significance level, if the true hazard ratio is 3.
Data are presented as mean +/− standard deviation. Statistical significance was assessed using ANOVA and post hoc Tukey's test with p<0.05. Statistical significance in the survival study was assessed using Kaplan-Meier survival curves and Mantel-Cox log-rank test.

[4] = CLP caffeine, 12 mL/g-min coronary flow, compared to saline injected sham values (so in the source)
[5] = CLP caffeine, toward saline injected sham values, most flow rates
[6] = sham caffeine vs both CLP groups, all coronary flow rates
[7] = sham caffeine vs saline injected sham, highest flow rates

Structure (SMILES): Cn1c(=O)c2c(ncn2C)n(C)c1=O [caffeine]
- myocardial CcOX kinetic activity normalized to citrate synthase activity ([1]; CLP rats, 48 hours, caffeine 7.5 mg/kg i.p. at 24 and 48 hours, vs sham): restored CcOX kinetic activity in CLP rats to sham values
- myocardial CcOX kinetic activity normalized to citrate synthase activity ([1]; sham animals, caffeine injected vs saline injected): no significant difference
- steady-state myocardial CcOX I levels [2]: no significant difference
- coronary resistance (isolated rat heart; CLP caffeine vs CLP saline): significantly increased
- coronary perfusion pressure (isolated rat heart; CLP caffeine vs CLP saline, 12 mL/g-min coronary flow): significantly increased
- left ventricular pressure (LVP) (isolated rat heart; CLP caffeine vs CLP saline, all flow rates greater than 4 mL/g-min): significantly improved
- left ventricular pressure (LVP) (isolated rat heart; CLP caffeine vs saline injected sham, flow rates except 12 mL/g-min): approached saline injected sham values
- left ventricular pressure (LVP) (isolated rat heart; CLP caffeine vs sham cohorts, 12 mL/g-min coronary flow): significantly lower than both sham cohorts
- coronary perfusion pressure (isolated rat heart; CLP caffeine vs sham controls, almost all coronary flow rates): significant reductions
- myocardial oxygen consumption (isolated rat heart; [4]): significantly increased
- myocardial oxygen extraction (isolated rat heart; [4]): significantly increased
- heart rate (isolated rat heart; CLP caffeine): 262+/−11 bpm
- +dP/dt (isolated rat heart; [5]): significantly improved
- −dP/dt (isolated rat heart; [5]): significantly improved
- left ventricular pressure (LVP) (isolated rat heart; sham caffeine vs all other groups, highest coronary flow rates): significantly increased
- myocardial oxygen consumption (isolated rat heart; sham caffeine vs both CLP cohorts, 12 mL/g-min coronary flow): significantly increased
- +dP/dt (isolated rat heart; [6]): significantly increased
- −dP/dt (isolated rat heart; [6]): significantly increased
- +dP/dt (isolated rat heart; [7]): significantly increased
- −dP/dt (isolated rat heart; [7]): significantly increased
- coronary resistance (isolated rat heart; sham caffeine vs sham saline): significantly decreased
- coronary perfusion pressure (isolated rat heart; sham caffeine vs sham saline, highest flow rate): significantly reduced
- heart rate (isolated rat heart; sham caffeine): 276+/−11 bpm
- animals survived to 48 hours ([3]; CLP, caffeine 7.5 mg/kg i.p. daily from 24 hours, 48 hours): Eighty
- animals survived to 72 hours ([3]; CLP, caffeine 7.5 mg/kg i.p. daily from 24 hours, 72 hours): 55%
- animals survived to 96 hours ([3]; CLP, caffeine 7.5 mg/kg i.p. daily from 24 hours, 96 hours): 40%
- mortality ([3]; sham operation, caffeine 7.5 mg/kg i.p. daily, to 96 hours): no mortality
